Measured values reported in the supplement of paper PMC8612539.
Converted amounts (≈) assume the structure as drawn.

Test system: Escherichia coli
Assay: minimum inhibitory concentration (MIC)
Procedure: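 Broth microdilution MIC (Sensititre BOPO7F bovine plate, CLSI methods) of 19 antimicrobials against field isolates of P. multocida, M. haemolytica, H. somni (deep nasopharyngeal swabs) and E. coli, Enterococcus spp. (rectal swabs) from weaned dairy heifers. Incubation 16-24 h at 35 C. MIC is the lowest concentration preventing visible growth. Values with <= or > lie at the tested range limits. Trimethoprim-sulfamethoxazole is given as the trimethoprim component of a 1:19 mixture.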

CCCN1C[C@H](C)[C@@H](O)[C@](C)(O)[C@@H](CC)OC(=O)[C@H](C)[C@@H](O[C@H]2C[C@@](C)(OC)[C@@H](O)[C@H](C)O2)[C@H](C)[C@@H](O[C@@H]2O[C@H](C)C[C@H](N(C)C)[C@H]2O)[C@](C)(O)C[C@H]1C [Gamithromycin]
Details | minimum inhibitory concentration [mg/L]
isolate (source animal id): 8 | 8 (≈ 10.3 µM)
isolate (source animal id): 9 | > 8
isolate (source animal id): 10 | 8 (≈ 10.3 µM)
isolate (source animal id): 11 | 8 (≈ 10.3 µM)
isolate (source animal id): 12 | 8 (≈ 10.3 µM)
isolate (source animal id): 13 | 8 (≈ 10.3 µM)
isolate (source animal id): 14 | > 8
isolate (source animal id): 15 | 4 (≈ 5.15 µM)
isolate (source animal id): 16 | 8 (≈ 10.3 µM)
isolate (source animal id): 98 | 8 (≈ 10.3 µM)
isolate (source animal id): 99 | 8 (≈ 10.3 µM)
isolate (source animal id): 100 | 4 (≈ 5.15 µM)
isolate (source animal id): 101 | 8 (≈ 10.3 µM)
isolate (source animal id): 102 | 8 (≈ 10.3 µM)
isolate (source animal id): 103 | 8 (≈ 10.3 µM)
isolate (source animal id): 104 | 8 (≈ 10.3 µM)
isolate (source animal id): 105 | 8 (≈ 10.3 µM)
isolate (source animal id): 106 | > 8
isolate (source animal id): 107 | 8 (≈ 10.3 µM)
isolate (source animal id): 108 | 8 (≈ 10.3 µM)
isolate (source animal id): 109 | 8 (≈ 10.3 µM)
isolate (source animal id): 110 | 4 (≈ 5.15 µM)
isolate (source animal id): 111 | 4 (≈ 5.15 µM)
isolate (source animal id): 112 | 8 (≈ 10.3 µM)
isolate (source animal id): 113 | 4 (≈ 5.15 µM)
isolate (source animal id): 114 | 8 (≈ 10.3 µM)
isolate (source animal id): 115 | > 8
isolate (source animal id): 116 | 4 (≈ 5.15 µM)
isolate (source animal id): 117 | > 8
isolate (source animal id): 118 | 8 (≈ 10.3 µM)
isolate (source animal id): 119 | > 8
isolate (source animal id): 120 | > 8
isolate (source animal id): 121 | 8 (≈ 10.3 µM)
isolate (source animal id): 122 | 8 (≈ 10.3 µM)
isolate (source animal id): 123 | 8 (≈ 10.3 µM)
isolate (source animal id): 124 | > 8
isolate (source animal id): 125 | ≤ 1
isolate (source animal id): 126 | > 8
isolate (source animal id): 127 | 8 (≈ 10.3 µM)
isolate (source animal id): 128 | 4 (≈ 5.15 µM)
isolate (source animal id): 129 | 4 (≈ 5.15 µM)
isolate (source animal id): 130 | 4 (≈ 5.15 µM)
isolate (source animal id): 131 | 4 (≈ 5.15 µM)
isolate (source animal id): 132 | 8 (≈ 10.3 µM)
isolate (source animal id): 133 | 8 (≈ 10.3 µM)
isolate (source animal id): 134 | 8 (≈ 10.3 µM)
isolate (source animal id): 135 | 8 (≈ 10.3 µM)
isolate (source animal id): 136 | 8 (≈ 10.3 µM)
isolate (source animal id): 137 | 8 (≈ 10.3 µM)
isolate (source animal id): 138 | > 8
isolate (source animal id): 139 | > 8
isolate (source animal id): 140 | 8 (≈ 10.3 µM)
isolate (source animal id): 141 | > 8
isolate (source animal id): 142 | 8 (≈ 10.3 µM)
isolate (source animal id): 143 | > 8
isolate (source animal id): 144 | > 8
isolate (source animal id): 145 | > 8
isolate (source animal id): 146 | 8 (≈ 10.3 µM)
isolate (source animal id): 147 | > 8
isolate (source animal id): 148 | 8 (≈ 10.3 µM)
isolate (source animal id): 149 | 8 (≈ 10.3 µM)
isolate (source animal id): 150 | > 8
isolate (source animal id): 151 | 8 (≈ 10.3 µM)
isolate (source animal id): 152 | 4 (≈ 5.15 µM)
isolate (source animal id): 153 | 8 (≈ 10.3 µM)
isolate (source animal id): 154 | 8 (≈ 10.3 µM)
isolate (source animal id): 155 | 4 (≈ 5.15 µM)
isolate (source animal id): 156 | > 8
isolate (source animal id): 157 | 8 (≈ 10.3 µM)
isolate (source animal id): 158 | 8 (≈ 10.3 µM)
isolate (source animal id): 159 | 4 (≈ 5.15 µM)
isolate (source animal id): 160 | > 8
isolate (source animal id): 161 | > 8
isolate (source animal id): 162 | 8 (≈ 10.3 µM)
isolate (source animal id): 163 | 8 (≈ 10.3 µM)
isolate (source animal id): 164 | 8 (≈ 10.3 µM)
isolate (source animal id): 165 | 8 (≈ 10.3 µM)
isolate (source animal id): 166 | 4 (≈ 5.15 µM)
isolate (source animal id): 167 | 8 (≈ 10.3 µM)
isolate (source animal id): 168 | 8 (≈ 10.3 µM)
isolate (source animal id): 169 | 8 (≈ 10.3 µM)
isolate (source animal id): 170 | 8 (≈ 10.3 µM)
isolate (source animal id): 171 | 8 (≈ 10.3 µM)
isolate (source animal id): 172 | 8 (≈ 10.3 µM)
isolate (source animal id): 173 | 4 (≈ 5.15 µM)
isolate (source animal id): 174 | 8 (≈ 10.3 µM)
isolate (source animal id): 175 | 8 (≈ 10.3 µM)
isolate (source animal id): 176 | 8 (≈ 10.3 µM)
isolate (source animal id): 177 | 8 (≈ 10.3 µM)
isolate (source animal id): 178 | 8 (≈ 10.3 µM)
isolate (source animal id): 179 | 8 (≈ 10.3 µM)
isolate (source animal id): 180 | 8 (≈ 10.3 µM)
isolate (source animal id): 181 | > 8
isolate (source animal id): 182 | 8 (≈ 10.3 µM)
isolate (source animal id): 183 | 8 (≈ 10.3 µM)
isolate (source animal id): 184 | 8 (≈ 10.3 µM)
isolate (source animal id): 185 | 8 (≈ 10.3 µM)
isolate (source animal id): 186 | 8 (≈ 10.3 µM)
isolate (source animal id): 187 | 4 (≈ 5.15 µM)
isolate (source animal id): 188 | 2 (≈ 2.57 µM)
